Measured values published in patent US20250127162A1, “METHODS AND COMPOSITIONS FOR CONTROLLING PESTS IN RICE” (Globachem NV, priority 2022, published 2025).

Columns and labels:
Format in all cases: in vivo
[1] = test system: Diabrotica speciosa; assay: Potato field trials, control of Diabrotica speciosa (Example 3); conditions: 400 L water/ha, two applications 7 d apart, Actara 0.05 kg/ha
Description: All applications were made with an EC formulation containing 650 g/L of pelargonic acid (e.g., 685 g/L of 95% purity pelargonic acid), an anionic emulsifier and a branched fatty acid ester solvent. […]. […] Potatoes—Diabrotica speciosa (Cucurbit beetle)-DIABSC [table] [table]

[2] = test system: Diabrotica speciosa; assay: Dry bean field trials, Diabrotica speciosa damage and yield (Example 4); conditions: 150 L water/ha, two applications 7 d apart; for % Damage, % UNCK: 28 DAB, Lambda-cyhalothrin 100 at 0.15 L/ha; for Yield: plot
Description: (§1) All applications were made with an EC formulation containing 650 g/L of pelargonic acid (e.g., 685 g/L of 95% purity pelargonic acid), an anionic emulsifier and a branched fatty acid ester solvent.
Diabrotica speciosa is a major pest in rice.
Dry Beans—Diabrotica speciosa

[3] = test system: Rice; assay: Phytotoxicity PHYGEN on rice (Example 1, Trials 3-4, Thailand); parameters: key: % leaf necrosis compared with untreated plants
Description: “Low Phytotoxicity” of pelargonic acid, as used herein means that the toxic effect on plants is absent or at such a level so as not to adversely impact the growth and/or yield of the plant under a given set of test conditions, e.g., at a given concentration of pelargonic acid. Phytotoxic effects may be measured in a number of different ways, for example, according to the principals set out in OEPP/EPPO Bulletin (2014) 44 (3), 265-273 “PP 1/135 (4) Phytotoxicity assessment”. The phytotoxic effect on plants may be assessed visually as a function of the percentage of discoloration to the leaves and/or the appearance of necrosis. When the pelargonic acid compositions are applied to the foliage of the rice plants in accordance with the teachings herein, will typically result in a level of phytotoxicity of less than 20%, preferably less than 15%, more preferably less than 10% necrosis of the leaves in comparison to untreated plants. Preferred uses of the invention will typically result in phytotoxicity of 7% or less, whilst the most preferred uses will typically result in phytotoxicity of 5% or less. The above values are approximate as any purely visual assessment is likely to contain a degree of subjectivity.
as §1
Application A was made to the crops at the beginning of infestations; for these trials, Stage BBCH 59; Application B was made 14 days after Application A.
Trial 3 was conducted in Thailand using a water volume of 500 L/ha of water per application unless otherwise indicated. Insect Damage (DAMINS %), Insect Damage (Number) and Phytotoxicity were assessed at various treatment evaluation intervals.
Trial 4 was conducted in Thailand using a water volume of 500 L/ha of water per application unless otherwise indicated. Insect Damage (DAMINS %), Insect Damage (Number) and Phytotoxicity were assessed at various treatment evaluation intervals.

[4] = Trial 1, dry bean, listed as PA 812.5 g/ha
[5] = Trial 1, dry bean, listed as PA 975 g/ha
[6] = Trial 1, dry bean, listed as PA 1137.5 g/ha
[7] = Trial 2, dry bean, listed as PA 812.5 g/ha
[8] = Trial 2, dry bean, listed as PA 975 g/ha
[9] = Trial 2, dry bean, listed as PA 1137.5 g/ha

For CCCCCCCCC(=O)O [PA 650 g/ha, pelargonic acid], the “# Insects, % UNCK” value ([1]; Trial 1, potato, 3 DAA) was 67.74b % UNCK, the “# Insects, % UNCK” value ([1]; Trial 1, potato, 3 DAA, listed as PA 487.5 g/ha) was 48.39ab % UNCK and the “# Insects, % UNCK” value ([1]; Trial 1, potato, 3 DAA, listed as PA 812.5 g/ha) was 64.52b % UNCK. For the same compound, the “# Insects, % UNCK” value ([1]; Trial 1, potato, 3 DAA, listed as PA 975 g/ha) was 74.19b % UNCK, the “# Insects, % UNCK” value ([1]; Trial 1, potato, 3 DAB) was 84.21c % UNCK and the “# Insects, % UNCK” value ([1]; Trial 1, potato, 3 DAB, listed as PA 487.5 g/ha) was 34.2b1 % UNCK. For the same compound, the “# Insects, % UNCK” value ([1]; Trial 1, potato, 3 DAB, listed as PA 812.5 g/ha) was 86.84c % UNCK, the “# Insects, % UNCK” value ([1]; Trial 1, potato, 3 DAB, listed as PA 975 g/ha) was 84.21c % UNCK and the “# Insects, % UNCK” value ([1]; Trial 1, potato, 7 DAA) was 55.88abc % UNCK. For the same compound, the “# Insects, % UNCK” value ([1]; Trial 1, potato, 7 DAA, listed as PA 487.5 g/ha) was 29.4ab % UNCK, the “# Insects, % UNCK” value ([1]; Trial 1, potato, 7 DAA, listed as PA 812.5 g/ha) was 61.76bc % UNCK and the “# Insects, % UNCK” value ([1]; Trial 1, potato, 7 DAA, listed as PA 975 g/ha) was 64.71bc % UNCK. The “# Insects, % UNCK” value ([1]; Trial 1, potato, 7 DAB) was 81.08b % UNCK, the “# Insects, % UNCK” value ([1]; Trial 1, potato, 7 DAB, listed as PA 487.5 g/ha) was 54.05b % UNCK and the “# Insects, % UNCK” value ([1]; Trial 1, potato, 7 DAB, listed as PA 812.5 g/ha) was 83.78b % UNCK. The “# Insects, % UNCK” value ([1]; Trial 1, potato, 7 DAB, listed as PA 975 g/ha) was 83.78b % UNCK, the “# Insects, % UNCK” value ([1]; Trial 2, potato, 3 DAA) was 61.90bc % UNCK and the “# Insects, % UNCK” value ([1]; Trial 2, potato, 3 DAA, listed as PA 487.5 g/ha) was 38.10b % UNCK. The “# Insects, % UNCK” value ([1]; Trial 2, potato, 3 DAA, listed as PA 812.5 g/ha) was 80.95cd % UNCK, the “# Insects, % UNCK” value ([1]; Trial 2, potato, 3 DAA, listed as PA 975 g/ha) was 95.24de % UNCK and the “# Insects, % UNCK” value ([1]; Trial 2, potato, 3 DAB) was 25.00ab % UNCK. For the same compound, the “# Insects, % UNCK” value ([1]; Trial 2, potato, 3 DAB, listed as PA 487.5 g/ha) was 25.00ab % UNCK, the “# Insects, % UNCK” value ([1]; Trial 2, potato, 3 DAB, listed as PA 812.5 g/ha) was 28.57b % UNCK and the “# Insects, % UNCK” value ([1]; Trial 2, potato, 3 DAB, listed as PA 975 g/ha) was 53.57c % UNCK. The “# Insects, % UNCK” value ([1]; Trial 2, potato, 7 DAA) was 38.10b % UNCK, the “# Insects, % UNCK” value ([1]; Trial 2, potato, 7 DAA, listed as PA 487.5 g/ha) was 23.81ab % UNCK and the “# Insects, % UNCK” value ([1]; Trial 2, potato, 7 DAA, listed as PA 812.5 g/ha) was 85.71c % UNCK. For the same compound, the “# Insects, % UNCK” value ([1]; Trial 2, potato, 7 DAA, listed as PA 975 g/ha) was 100.00d % UNCK, the “# Insects, % UNCK” value ([1]; Trial 2, potato, 7 DAB) was 87.50bc % UNCK and the “# Insects, % UNCK” value ([1]; Trial 2, potato, 7 DAB, listed as PA 487.5 g/ha) was 70.83b % UNCK. For the same compound, the “# Insects, % UNCK” value ([1]; Trial 2, potato, 7 DAB, listed as PA 812.5 g/ha) was 91.67c % UNCK, the “# Insects, % UNCK” value ([1]; Trial 2, potato, 7 DAB, listed as PA 975 g/ha) was 100.00c % UNCK and the “# Insects, % UNCK” value ([1]; Trial 2, potato, 10 DAB) was 86.96bc % UNCK. The “# Insects, % UNCK” value ([1]; Trial 2, potato, 10 DAB, listed as PA 487.5 g/ha) was 68.57b % UNCK, the “# Insects, % UNCK” value ([1]; Trial 2, potato, 10 DAB, listed as PA 812.5 g/ha) was 91.30c % UNCK and the “# Insects, % UNCK” value ([1]; Trial 2, potato, 10 DAB, listed as PA 975 g/ha) was 100.00c % UNCK. For the same compound, the “% Damage, % UNCK” value ([2]; Trial 1, dry bean) was 27.81a % UNCK, the “% Damage, % UNCK” value [2, 4] was 82.01b % UNCK and the “% Damage, % UNCK” value [2, 5] was 86.96b % UNCK. The “% Damage, % UNCK” value [2, 6] was 88.90b % UNCK, the Yield ([2]; Trial 1, dry bean) was 2.09b Ton/ha and the Yield [2, 4] was 2.28ab Ton/ha. For the same compound, the Yield [2, 5] was 2.37ab Ton/ha, the Yield [2, 6] was 2.34ab Ton/ha and the “% Damage, % UNCK” value ([2]; Trial 2, dry bean) was 39.58b % UNCK. The “% Damage, % UNCK” value [2, 7] was 81.64c % UNCK, the “% Damage, % UNCK” value [2, 8] was 87.8c % UNCK and the “% Damage, % UNCK” value [2, 9] was 88.11c % UNCK. It also gave a Yield ([2]; Trial 2, dry bean) of 2.11cd Ton/ha, a Yield [2, 7] of 2.15cd Ton/ha and a Yield [2, 8] of 2.19bc Ton/ha. For the same compound, the Yield [2, 9] was 2.29a Ton/ha, the “Phytotoxicity (PHYGEN)” value ([3]; Trial 3, 0 DAA, water volume 200 L/ha) was 0 and the “Phytotoxicity (PHYGEN)” value ([3]; Trial 3, 0 DAA, water volume 500 L/ha) was 0. The “Phytotoxicity (PHYGEN)” value ([3]; Trial 3, 0 DAB, water volume 200 L/ha) was 0, the “Phytotoxicity (PHYGEN)” value ([3]; Trial 3, 0 DAB, water volume 500 L/ha) was 0 and the “Phytotoxicity (PHYGEN)” value ([3]; Trial 3, 7 DAA, water volume 200 L/ha) was 0. The “Phytotoxicity (PHYGEN)” value ([3]; Trial 3, 7 DAA, water volume 500 L/ha) was 0, the “Phytotoxicity (PHYGEN)” value ([3]; Trial 3, 7 DAB, water volume 200 L/ha) was 0 and the “Phytotoxicity (PHYGEN)” value ([3]; Trial 3, 7 DAB, water volume 500 L/ha) was 0. The “Phytotoxicity (PHYGEN)” value ([3]; Trial 3, 10 DAA, water volume 200 L/ha) was 0, the “Phytotoxicity (PHYGEN)” value ([3]; Trial 3, 10 DAA, water volume 500 L/ha) was 0 and the “Phytotoxicity (PHYGEN)” value ([3]; Trial 3, 10 DAB, water volume 200 L/ha) was 0. The “Phytotoxicity (PHYGEN)” value ([3]; Trial 3, 10 DAB, water volume 500 L/ha) was 0, the “Phytotoxicity (PHYGEN)” value ([3]; Trial 3, 14 DAB, water volume 200 L/ha) was 0 and the “Phytotoxicity (PHYGEN)” value ([3]; Trial 3, 14 DAB, water volume 500 L/ha) was 0. The “Phytotoxicity (PHYGEN)” value ([3]; Trial 3, 21 DAB, water volume 200 L/ha) was 0, the “Phytotoxicity (PHYGEN)” value ([3]; Trial 3, 21 DAB, water volume 500 L/ha) was 0 and the “Phytotoxicity (PHYGEN)” value ([3]; Trial 4, 0 DAA, water volume 200 L/ha) was 0. For the same compound, the “Phytotoxicity (PHYGEN)” value ([3]; Trial 4, 0 DAA, water volume 500 L/ha) was 0, the “Phytotoxicity (PHYGEN)” value ([3]; Trial 4, 0 DAB, water volume 200 L/ha) was 0 and the “Phytotoxicity (PHYGEN)” value ([3]; Trial 4, 0 DAB, water volume 500 L/ha) was 0. For the same compound, the “Phytotoxicity (PHYGEN)” value ([3]; Trial 4, 7 DAA, water volume 200 L/ha) was 0, the “Phytotoxicity (PHYGEN)” value ([3]; Trial 4, 7 DAA, water volume 500 L/ha) was 0 and the “Phytotoxicity (PHYGEN)” value ([3]; Trial 4, 7 DAB, water volume 200 L/ha) was 0. The “Phytotoxicity (PHYGEN)” value ([3]; Trial 4, 7 DAB, water volume 500 L/ha) was 0, the “Phytotoxicity (PHYGEN)” value ([3]; Trial 4, 10 DAA, water volume 200 L/ha) was 0 and the “Phytotoxicity (PHYGEN)” value ([3]; Trial 4, 10 DAA, water volume 500 L/ha) was 0. For the same compound, the “Phytotoxicity (PHYGEN)” value ([3]; Trial 4, 10 DAB, water volume 200 L/ha) was 0, the “Phytotoxicity (PHYGEN)” value ([3]; Trial 4, 10 DAB, water volume 500 L/ha) was 0 and the “Phytotoxicity (PHYGEN)” value ([3]; Trial 4, 14 DAB, water volume 200 L/ha) was 0. The “Phytotoxicity (PHYGEN)” value ([3]; Trial 4, 14 DAB, water volume 500 L/ha) was 0, the “Phytotoxicity (PHYGEN)” value ([3]; Trial 4, 21 DAB, water volume 200 L/ha) was 0 and the “Phytotoxicity (PHYGEN)” value ([3]; Trial 4, 21 DAB, water volume 500 L/ha) was 0.
